Reference: patent US8431596B2 (Cancer Research Technology Limited, priority 2007, dated 2013)

What follows are molecules tested against T1, AXL (human catalytic domain) (Homo sapiens, UniProt P30530) (assay: AXL (human catalytic domain) Enzyme Activity Assay (IMAP fluorescence polarisation)). Details: further data set (WW-001 through WW-169, XX-001 through XX-469, YY-001 through YY-016, ZZ-001 through ZZ-003); 150 μM ATP.
T1 construct: purchased Upstate Ltd. 14-512
T1 sequence (P30530 473-894): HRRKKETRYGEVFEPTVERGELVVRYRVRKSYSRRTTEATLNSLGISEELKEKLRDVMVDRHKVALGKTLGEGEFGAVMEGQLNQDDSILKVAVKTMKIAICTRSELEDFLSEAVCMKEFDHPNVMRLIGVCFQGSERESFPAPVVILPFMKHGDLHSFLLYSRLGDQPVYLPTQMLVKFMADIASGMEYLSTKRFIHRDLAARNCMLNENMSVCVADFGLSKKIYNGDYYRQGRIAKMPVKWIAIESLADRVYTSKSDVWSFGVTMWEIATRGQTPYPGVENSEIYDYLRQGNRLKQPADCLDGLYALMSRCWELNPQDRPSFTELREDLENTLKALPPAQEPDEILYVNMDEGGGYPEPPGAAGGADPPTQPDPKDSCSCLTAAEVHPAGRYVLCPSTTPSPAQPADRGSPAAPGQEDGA
Format: biochemical
Method in brief: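 Recombinant human AXL isoform 1 (aa473-894; final 15 nM) phosphorylated 100 nM fluorescein-CSK-tide with 150 μM ATP (KM) in HEPES pH 7.0/MgCl2/DTT buffer for 60 min at room temperature. IMAP fluorescence polarisation read after overnight binding; IC50 from 10-point 4-parameter logistic fits.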

| IC50 | SMILES |
| --- | --- |
| 0.1 to 1 µM | C#CCn1cc(-c2cccc3nc(Nc4ccc(OCCN5CCCC5)cc4)nn23)cn1 [XX-302] |
| ≤ 0.1 µM | Clc1ccc(Cn2cc(-c3cccc4nc(Nc5ccc(OCCN6CCCC6)cc5)nn34)cn2)cc1 [XX-304] |
| 0.1 to 1 µM | Cc1cc(Cn2cc(-c3cccc4nc(Nc5ccc(OCCN6CCCC6)cc5)nn34)cn2)no1 [XX-305] |
| 0.1 to 1 µM | CC(c1ccccc1)n1cc(-c2cccc3nc(Nc4ccc(OCCN5CCCC5)cc4)nn23)cn1 (stereo not shown) [XX-306] |
| 0.1 to 1 µM | OCCn1cc(-c2cccc3nc(Nc4ccc(OCCN5CCCC5)cc4)nn23)cn1 [XX-307, 2-(4-{2-[4-(2-Pyrrolidin-1-yl-ethoxy)-phenylamino]-[1,2,4]triazolo[1,5-a]pyridin-5-yl}-pyrazol-1-yl)-ethanol] |
| 1 to 10 µM | NCc1cccc(-c2cccc3nc(Nc4ccc(OCCN5CCCC5)cc4)nn23)c1 [XX-308, [5-(3-Aminomethyl-phenyl)-[1,2,4]triazolo[1,5-a]pyridin-2-yl]-[4-(2-pyrrolidin-1-yl-ethoxy)-phenyl]-amine] |
| 1 to 10 µM | c1ccc(-c2nnc(-c3cccc(-c4cccc5nc(Nc6ccc(OCCN7CCCC7)cc6)nn45)c3)o2)cc1 [XX-309, {5-[3-(5-Phenyl-[1,3,4]oxadiazol-2-yl)-phenyl]-[1,2,4]triazolo[1,5-a]pyridin-2-yl}-[4-(2-pyrrolidin-1-yl-ethoxy)-phenyl]-amine] |
| 0.1 to 1 µM | O=C(c1cccc(-c2cccc3nc(Nc4ccc(OCCN5CCCC5)cc4)nn23)c1)c1ccc2c(c1)OCO2 [XX-310, Benzo[1,3]dioxol-5-yl-(3-{2-[4-(2-pyrrolidin-1-yl-ethoxy)-phenylamino]-[1,2,4]triazolo[1,5-a]pyridin-5-yl}-phenyl)-methanone] |
| 0.1 to 1 µM | Cc1cc(-c2ccc3c(c2)OCCO3)n2nc(Nc3ccc(OCCN4CCCC4)cc3)nc2c1 [XX-311, [5-(2,3-Dihydro-benzo[1,4]dioxin-6-yl)-7-methyl-[1,2,4]triazolo[1,5-a]pyridin-2-yl]-[4-(2-pyrrolidin-1-yl-ethoxy)-phenyl]-amine] |
| ≤ 0.1 µM | c1cc(-c2ccc3c(c2)OCCO3)n2nc(Nc3ccc(OCCCN4CCCC4)cc3)nc2c1 [XX-312] |
| 0.1 to 1 µM | CCn1cc(-c2cccc3nc(Nc4ccc(OCCN5CCCC5)cc4)nn23)cn1 [XX-315] |
| ≤ 0.1 µM | c1cc(-c2cnn(CC3CC3)c2)n2nc(Nc3ccc(OCCN4CCCC4)cc3)nc2c1 [XX-316] |
| 0.1 to 1 µM | O=C(Cn1cc(-c2cccc3nc(Nc4ccc(OCCN5CCCC5)cc4)nn23)cn1)c1cccs1 [XX-317] |
| ≤ 0.1 µM | CCCn1cc(-c2cccc3nc(Nc4ccc(OCCN5CCCC5)cc4)nn23)cn1 [XX-318] |
| ≤ 0.1 µM | CCC(CC)Cn1cc(-c2cccc3nc(Nc4ccc(OCCN5CCCC5)cc4)nn23)cn1 [XX-319] |
| ≤ 0.1 µM | CC[C@H](C)Cn1cc(-c2cccc3nc(Nc4ccc(OCCN5CCCC5)cc4)nn23)cn1 [XX-320] |
| 1 to 10 µM | O=C(Nc1ccc(Cl)cc1)c1cccc(-c2cccc3nc(Nc4ccc(OCCN5CCCC5)cc4)nn23)c1 [XX-321] |
| 1 to 10 µM | O=C(Nc1cccc(Cl)c1)c1cccc(-c2cccc3nc(Nc4ccc(OCCN5CCCC5)cc4)nn23)c1 [XX-322] |
| 1 to 10 µM | COc1ccc2nc(Nc3ccc(OCCN4CCCC4)cc3)nn2c1-c1ccc2c(c1)OCCO2 [XX-323, [5-(2,3-Dihydro-benzo[1,4]dioxin-6-yl)-6-methoxy-[1,2,4]triazolo[1,5-a]pyridin-2-yl]-[4-(2-pyrrolidin-1-yl-ethoxy)-phenyl]-amine] |
| 1 to 10 µM | CCCCS(=O)(=O)NCc1cccc(-c2cccc3nc(Nc4ccc(OCCN5CCCC5)cc4)nn23)c1 [XX-324, Butane-1-sulfonic acid 3-{2-[4-(2-pyrrolidin-1-yl-ethoxy)-phenylamino]-[1,2,4]triazolo[1,5-a]pyridin-5-yl}-benzylamide] |
| 0.1 to 1 µM | CC(C)CC(=O)NCc1cccc(-c2cccc3nc(Nc4ccc(OCCN5CCCC5)cc4)nn23)c1 [XX-325, 3-Methyl-N-(3-{2-[4-(2-pyrrolidin-1-yl-ethoxy)-phenylamino]-[1,2,4]triazolo[1,5-a]pyridin-5-yl}-benzyl)-butyramide] |
| ≤ 0.1 µM | CCN(CC)CCN(C)c1cc(Nc2nc3cccc(-c4ccc(OC)cc4)n3n2)ccn1 [XX-326] |

| IC50 | SMILES |
| --- | --- |
| 1 to 10 µM | Nc1nnc(SCCn2cc(-c3cccc4nc(Nc5ccc(OCCN6CCCC6)cc5)nn34)cn2)[nH]1 [XX-327, (5-{1-[2-(5-Amino-4H-[1,2,4]triazol-3-ylsulfanyl)-ethyl]-1H-pyrazol-4-yl}-[1,2,4]triazolo[1,5-a]pyridin-2-yl)-[4-(2-pyrrolidin-1-yl-ethoxy)-phenyl]-amine] |
| 0.1 to 1 µM | C=Cn1cc(-c2cccc3nc(Nc4ccc(OCCN5CCCC5)cc4)nn23)cn1 [XX-328] |
| 0.1 to 1 µM | CCN(CC)CCCOc1ccc(Nc2nc3cccc(-c4ccc5c(c4)OCCO5)n3n2)cc1 [XX-329] |
| 1 to 10 µM | Clc1cccc(COc2cccc(-c3cccc4nc(Nc5ccc(OCCN6CCCC6)cc5)nn34)c2)c1 [XX-330] |
| 1 to 10 µM | CC(C)Oc1cccc(-c2cccc3nc(Nc4ccc(OCCN5CCCC5)cc4)nn23)c1 [XX-331] |
| 0.1 to 1 µM | c1cc(OCc2ccncc2)cc(-c2cccc3nc(Nc4ccc(OCCN5CCCC5)cc4)nn23)c1 [XX-332] |
| 1 to 10 µM | COc1ccc(OC)c(-c2cccc3nc(Nc4ccc(OCCN5CCCC5)cc4)nn23)c1 [XX-333] |
| 0.1 to 1 µM | COc1cc(-c2cccc3nc(Nc4ccc(OCCN5CCCC5)cc4)nn23)ccc1F [XX-334] |
| 0.1 to 1 µM | COc1cccc(COc2cccc(-c3cccc4nc(Nc5ccc(OCCN6CCCC6)cc5)nn34)c2)c1 [XX-335] |
| 1 to 10 µM | Clc1ccc(COc2cccc(-c3cccc4nc(Nc5ccc(OCCN6CCCC6)cc5)nn34)c2)cc1 [XX-336] |
| 0.1 to 1 µM | CCOc1cccc(-c2cccc3nc(Nc4ccc(OCCN5CCCC5)cc4)nn23)c1 [XX-337] |
| 1 to 10 µM | COc1ccccc1COc1cccc(-c2cccc3nc(Nc4ccc(OCCN5CCCC5)cc4)nn23)c1 [XX-338] |
| 1 to 10 µM | Clc1ccccc1COc1cccc(-c2cccc3nc(Nc4ccc(OCCN5CCCC5)cc4)nn23)c1 [XX-339] |
| 0.1 to 1 µM | COc1ccc(COc2cccc(-c3cccc4nc(Nc5ccc(OCCN6CCCC6)cc5)nn34)c2)cc1 [XX-340] |
| 0.1 to 1 µM | ClCc1cccc(-c2cccc3nc(Nc4ccc(OCCN5CCCC5)cc4)nn23)c1 [XX-341, [5-(3-Chloromethyl-phenyl)-[1,2,4]triazolo[1,5-a]pyridin-2-yl]-[4-(2-pyrrolidin-1-yl-ethoxy)-phenyl]-amine] |
| 1 to 10 µM | NC(=O)Cn1cc(-c2cccc3nc(Nc4ccc(OCCN5CCCC5)cc4)nn23)cn1 [XX-342] |
| 0.1 to 1 µM | CCCCCn1cc(-c2cccc3nc(Nc4ccc(OCCN5CCCC5)cc4)nn23)cn1 [XX-343] |
| 0.1 to 1 µM | c1cc(-c2cnn(CC3CCCO3)c2)n2nc(Nc3ccc(OCCN4CCCC4)cc3)nc2c1 (stereo not shown) [XX-344] |
| 0.1 to 1 µM | CC(C)CCCn1cc(-c2cccc3nc(Nc4ccc(OCCN5CCCC5)cc4)nn23)cn1 [XX-345] |
| 0.1 to 1 µM | O=C(Cn1cc(-c2cccc3nc(Nc4ccc(OCCN5CCCC5)cc4)nn23)cn1)c1ccccc1 [XX-346] |
| 0.1 to 1 µM | c1cc(-c2ccc3cc[nH]c3c2)n2nc(Nc3ccc(OCCCN4CCCCC4)cc3)nc2c1 [XX-347] |
